The compounds below were run against one or more of HDAC-4, HDAC-5, HDAC-6, HDAC-7, HDAC-8, HDAC-9, HDAC-10 and HDAC-11 (assay: Inhibition of histone deacetylase enzymatic activity (summary statement over isoforms)). Conditions: Table 3, selected examples; HDAC isoform not given.
Assay type: biochemical
Procedure, shortened: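 HDAC enzyme mix with compound was preincubated 5 min at room temperature. Reaction was started at 37 °C with Boc-Lys(trifluoroacetyl)-AMC substrate and run 20-30 min. It was stopped with trypsin (1 mg/mL) plus a known HDAC inhibitor to release the fluorogenic AMC.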

| IC50 [nM] | SMILES |
| --- | --- |
| < 1000 | CN(C)c1ccc(-c2ccc(C(C(=O)NO)c3ccccc3)cc2)cc1 (stereo not drawn) [Compound 5-21, 2-(4′-(dimethylamino)biphenyl-4-yl)-N-hydroxy-2-phenylacetamide] |
| < 1000 | O=C(NO)C(c1ccccc1)c1ccc(N2CCOCC2)cc1 (stereo not drawn) [Compound 5-22, N-hydroxy-2-(4-morpholinophenyl)-2-phenylacetamide] |
| < 1000 | O=C(NO)C(c1ccccc1)c1ccc(-c2cncnc2)cc1 (stereo not drawn) [Compound 5-23, N-hydroxy-2-phenyl-2-(4-(pyrimidin-5-yl)phenyl)acetamide] |
| < 1000 | O=C(NO)C(c1ccccc1)c1cccc(-c2ccccc2)c1 (stereo not drawn) [Compound 5-29, 2-(biphenyl-3-yl)-N-hydroxy-2-phenylacetamide] |
| < 1000 | O=C(NO)C(c1ccccc1)c1cccc(-c2ccncc2)c1 (stereo not drawn) [Compound 5-30, N-hydroxy-2-phenyl-2-(3-(pyridin-4-yl)phenyl)acetamide] |
| 1000 to 15000 | CN(C)c1ccc(C(C(=O)NO)c2ccccc2)c2ccccc12 (stereo not drawn) [Compound 5-32, 2-(4-(dimethylamino)naphthalen-1-yl)-N-hydroxy-2-phenylacetamide] |
| < 1000 | O=C(NO)C(c1ccccc1)c1ccc(OCc2ccccc2)cc1 (stereo not drawn) [Compound 5-33, 2-(4-(benzyloxy)phenyl)-N-hydroxy-2-phenylacetamide] |
| < 1000 | O=C(NO)C(c1ccccc1)c1ccc(-c2ccc(N3CCOCC3)cc2)cc1 (stereo not drawn) [Compound 5-34, N-hydroxy-2-(4′-morpholinobiphenyl-4-yl)-2-phenylacetamide] |
| < 1000 | O=C(NO)C(c1ccccc1)c1ccc(O)cc1 (stereo not drawn) [Compound 5-36, N-hydroxy-2-(4-hydroxyphenyl)-2-phenylacetamide] |
| < 1000 | O=C(NO)C(c1ccccc1)c1nnc(-c2ccc(C(F)(F)F)cc2)s1 (stereo not drawn) [Compound 5-37, N-hydroxy-2-phenyl-2-(5-(4-(trifluoromethyl)phenyl)-1,3,4-thiadiazol-2-yl)acetamide] |
| < 1000 | O=C(NO)C(c1ccccc1)c1nnc(-c2ccc3c(c2)OCO3)s1 (stereo not drawn) [Compound 5-38, 2-(5-(benzo[d][1,3]dioxol-5-yl)-1,3,4-thiadiazol-2-yl)-N-hydroxy-2-phenylacetamide] |
| 1000 to 15000 | O=C(NO)C(c1ccccc1)c1nnc(-c2ccccc2-c2ccccc2)s1 (stereo not drawn) [Compound 5-39, 2-(5-(biphenyl-2-yl)-1,3,4-thiadiazol-2-yl)-N-hydroxy-2-phenylacetamide] |
| < 1000 | O=C(NO)C(c1ccccc1)c1ccc(-c2ccc3[nH]ccc3c2)cc1 (stereo not drawn) [Compound 5-41, 2-(4-(1H-indol-5-yl)phenyl)-N-hydroxy-2-phenylacetamide] |
| < 1000 | O=C(NO)C(c1ccccc1)N1CCN(c2ccc(C(F)(F)F)cc2)CC1 (stereo not drawn) [Compound 5-43, N-hydroxy-2-phenyl-2-(4-(4-(trifluoromethyl)phenyl)piperazin-1-yl)acetamide] |
| < 1000 | Cc1cc(-c2ccc(C(C(=O)NO)c3ccccc3)cc2)ccc1F (stereo not drawn) [Compound 5-45, 2-(4′-fluoro-3′-methylbiphenyl-4-yl)-N-hydroxy-2-phenylacetamide] |
| < 1000 | O=C(NO)C(c1ccccc1)N1CCN(c2ccc(C(F)(F)F)cn2)CC1 (stereo not drawn) [Compound 5-48, N-hydroxy-2-phenyl-2-(4-(5-(trifluoromethyl)pyridin-2-yl)piperazin-1-yl)acetamide] |
| < 1000 | O=C(NO)C(c1ccccc1)c1ccc(-c2ccc(F)c(F)c2)cc1 (stereo not drawn) [Compound 5-49, 2-(3′,4′-difluorobiphenyl-4-yl)-N-hydroxy-2-phenylacetamide] |
| < 1000 | O=C(NO)C(c1ccccc1)c1nnc(-c2ccccc2Oc2ccccc2)s1 (stereo not drawn) [Compound 5-52, N-hydroxy-2-(5-(2-phenoxyphenyl)-1,3,4-thiadiazol-2-yl)-2-phenylacetamide] |
| < 1000 | O=C(NO)C(c1ccccc1)c1nnc(COc2ccccc2)s1 (stereo not drawn) [Compound 5-53, N-hydroxy-2-(5-(phenoxymethyl)-1,3,4-thiadiazol-2-yl)-2-phenylacetamide] |
| 1000 to 15000 | O=C(NO)C(c1ccccc1)c1nnc(-c2ccc3ccccc3c2)s1 (stereo not drawn) [Compound 5-54, N-hydroxy-2-(5-(naphthalen-2-yl)-1,3,4-thiadiazol-2-yl)-2-phenylacetamide] |
| < 1000 | O=C(NO)C(c1ccccc1)c1nnc(-c2ccc3[nH]ccc3c2)s1 (stereo not drawn) [Compound 5-55, 2-(5-(1H-indol-5-yl)-1,3,4-thiadiazol-2-yl)-N-hydroxy-2-phenylacetamide] |
| < 1000 | CN(C)c1ccc(-c2ccc(C(C(=O)NO)c3ccccc3)cc2)cn1 (stereo not drawn) [Compound 5-58, 2-(4-(6-(dimethylamino)pyridin-3-yl)phenyl)-N-hydroxy-2-phenylacetamide] |
| < 1000 | O=C(NO)C(Sc1nc2cc(Cl)ccc2s1)c1ccccc1 (stereo not drawn) [Compound 5-59, 2-(5-chlorobenzo[d]thiazol-2-ylthio)-N-hydroxy-2-phenylacetamide] |
| < 1000 | O=C(NO)C(c1ccccc1)c1ccc(C#Cc2cccnc2)cc1 (stereo not drawn) [Compound 5-63, N-hydroxy-2-phenyl-2-(4-(pyridin-3-ylethynyl)phenyl)acetamide] |
| < 1000 | O=C(NO)C(c1ccccc1)c1nnc(C2c3ccccc3Oc3ccccc32)s1 (stereo not drawn) [Compound 5-64, 2-(5-(9H-xanthen-9-yl)-1,3,4-thiadiazol-2-yl)-N-hydroxy-2-phenylacetamide] |
| < 1000 | O=C(NO)C(c1ccccc1)c1ccc(N2CCN(c3cccc(C(F)(F)F)c3)CC2)cc1 (stereo not drawn) [Compound 5-67, N-hydroxy-2-phenyl-2-(4-(4-(3-(trifluoromethyl)phenyl)piperazin-1-yl)phenyl)acetamide] |
| < 1000 | O=C(NO)C(c1ccccc1)c1ccc(N2CCCCC2)cc1 (stereo not drawn) [Compound 5-70, N-hydroxy-2-phenyl-2-(4-(piperidin-1-yl)phenyl)acetamide] |
| < 1000 | O=C(NO)C(c1ccccc1)c1ccc(-n2cccn2)cc1 (stereo not drawn) [Compound 5-72, 2-(4-(1H-pyrazol-1-yl)phenyl)-N-hydroxy-2-phenylacetamide] |

Continued, compound first:

| SMILES | IC50 [nM] |
| --- | --- |
| COc1ccc(C2CCN(C(C(=O)NO)c3ccccc3)CC2)cc1 (stereo not drawn) [Compound 5-24, N-hydroxy-2-(4-(4-methoxyphenyl)piperidin-1-yl)-2-phenylacetamide] | < 1000 |
| O=C(NO)C(c1ccccc1)c1ccc(N2CCN(c3ccccc3)CC2)cc1 (stereo not drawn) [Compound 5-26, N-hydroxy-2-phenyl-2-(4-(4-phenylpiperazin-1-yl)phenyl)acetamide] | < 1000 |
| O=C(NO)C(Sc1ccc2ccccc2c1)c1ccccc1 (stereo not drawn) [Compound 5-28, N-hydroxy-2-(naphthalen-2-ylthio)-2-phenylacetamide] | < 1000 |
| O=C(NO)C1c2ccccc2CCc2ccccc21 [Compound 5-31] | 1000 to 15000 |
| O=C(NO)C(c1ccccc1)N1CCC(c2nc3ccccc3o2)CC1 (stereo not drawn) [Compound 5-35, 2-(4-(benzo[d]oxazol-2-yl)piperidin-1-yl)-N-hydroxy-2-phenylacetamide] | < 1000 |
| O=C(NO)C(c1ccccc1)c1ccc(OCCN2CCOCC2)cc1 (stereo not drawn) [Compound 5-40, N-hydroxy-2-(4-(2-morpholinoethoxy)phenyl)-2-phenylacetamide] | < 1000 |
| O=C(NO)C(c1ccccc1)N1CCN(C(=O)c2ccccc2)CC1 (stereo not drawn) [Compound 5-42, 2-(4-benzoylpiperazin-1-yl)-N-hydroxy-2-phenylacetamide] | 1000 to 15000 |
| CCN(Cc1ccccc1)c1ccc(C(C(=O)NO)c2ccccc2)cc1 (stereo not drawn) [Compound 5-44, 2-(4-(benzyl(ethyl)amino)phenyl)-N-hydroxy-2-phenylacetamide] | < 1000 |
| O=C(NO)C(Sc1nc2cccnc2s1)c1ccccc1 (stereo not drawn) [Compound 5-46, N-hydroxy-2-phenyl-2-(thiazolo[5,4-b]pyridin-2-ylthio)acetamide] | < 1000 |
| COc1ccc2sc(SC(C(=O)NO)c3ccccc3)nc2c1 (stereo not drawn) [Compound 5-50, N-hydroxy-2-(5-methoxybenzo[d]thiazol-2-ylthio)-2-phenylacetamide] | < 1000 |
| O=C(NO)C(c1ccccc1)c1ccc(N2CCC(Cc3ccccc3)CC2)cc1 (stereo not drawn) [Compound 5-51, 2-(4-(4-benzylpiperidin-1-yl)phenyl)-N-hydroxy-2-phenylacetamide] | < 1000 |
| O=C(NO)C1c2ccccc2N(Cc2ccccc2)c2ccccc21 [Compound 5-56, 10-benzyl-N-hydroxy-9,10-dihydroacridine-9-carboxamide] | < 1000 |
| O=C(NO)C(c1ccccc1)N1CCN(c2ccc(F)cc2)CC1 (stereo not drawn) [Compound 5-57, 2-(4-(4-fluorophenyl)piperazin-1-yl)-N-hydroxy-2-phenylacetamide] | 1000 to 15000 |
| O=C(NO)C(c1ccccc1)N1CCN(C(=O)OCc2ccccc2)CC1 (stereo not drawn) [Compound 5-61, benzyl 4-(2-(hydroxyamino)-2-oxo-1-phenylethyl)piperazine-1-carboxylate] | 1000 to 15000 |
| O=C(NO)C(c1ccccc1)N1CCC(c2ccc(F)cc2)CC1 (stereo not drawn) [Compound 5-62, 2-(4-(4-fluorophenyl)piperidin-1-yl)-N-hydroxy-2-phenylacetamide] | < 1000 |
| O=C(NO)C(c1ccccc1)c1ccc(N2CCN(Cc3ccccc3)CC2)cc1 (stereo not drawn) [Compound 5-65, 2-(4-(4-benzylpiperazin-1-yl)phenyl)-N-hydroxy-2-phenylacetamide] | < 1000 |
| O=C(NO)C(c1ccccc1)c1ccc(N2CCN(c3ccccn3)CC2)cc1 (stereo not drawn) [Compound 5-66, N-hydroxy-2-phenyl-2-(4-(4-(pyridin-2-yl)piperazin-1-yl)phenyl)acetamide] | < 1000 |
| O=C(NO)C(c1ccccc1)c1ccc(CCCCc2ccccc2)cc1 (stereo not drawn) [Compound 5-68, N-hydroxy-2-phenyl-2-(4-(4-phenylbutyl)phenyl)acetamide] | < 1000 |
| O=C(NO)C(c1ccc(N2CCCC2)cc1)c1ccc2c(c1)CCO2 (stereo not drawn) [Compound 5-69, 2-(2,3-dihydrobenzofuran-5-yl)-N-hydroxy-2-(4-(pyrrolidin-1-yl)phenyl)acetamide] | < 1000 |
| O=C(NO)C(c1ccccc1)N1C[C@@H]2C[C@H]1CO2 (stereo partly drawn) [Compound 5-71, 2-((1S,4S)-2-oxa-5-azabicyclo[2.2.1]heptan-5-yl)-N-hydroxy-2-phenylacetamide] | 1000 to 15000 |

Reference: US9096565B2, “Inhibitors of histone deacetylase” (MethylGene Inc., priority 2007, dated 2015)
